According to patent US20260355323A1, “CEREBLON-RECRUITING BCL-XL/BCL-2 DUAL DEGRADERS” (University of Florida Research Foundation, Incorporated, priority 2022, published 2026):

What was measured:
[1] = test system: RS4;11 acute lymphoblastic leukemia cells; assay: Cell viability, tetrazolium-based MTS assay, RS4;11; details: Homo sapiens, RS4;11, 48 h, read-out: Anti-Cancer Activity EC50 (48 hr), RS4
Procedure: (§1) Acute lymphoblastic leukemia cells (MOLT-4 and RS4;11) were incubated with increasing concentrations of Bcl-xL/Bcl-2 degraders for 48 h. Cell viability was measured by tetrazolium-based MTS assay.

WI-38 NC = assay: Senolytic activity, cell viability (PrestoBlue HS), WI-38 NC; format: cell-based; details: for EC50: Homo sapiens, 72 h
Procedure: WI-38 and HUVEC cells were incubated with increasing concentrations of degraders for 72 h. Cell viability was measured using PrestoBlue HS cell viability reagent.

[2] = test system: MOLT-4 acute lymphoblastic leukemia cells; assay: Cell viability, tetrazolium-based MTS assay, MOLT-4; details: Homo sapiens, MOLT-4, 48 h; read-out: Anti-Cancer Activity EC50 (48 hr), MOLT-4
Procedure: as §1

CC1(CN2CCN(C(=O)CN3CCN(C(=O)CNc4ccc5c(c4)C(=O)N(C4CCC(=O)NC4=O)C5=O)CC3)CC2)CCC(c2ccc(Cl)cc2)=C(CN2CCN(c3ccc(C(=O)NS(=O)(=O)c4ccc(N[C@H](CCN5CCOCC5)CSc5ccccc5)c(S(=O)(=O)C(F)(F)F)c4)cc3)CC2)C1 (stereo partly drawn) [Compound 17, 4-(4-((4′-chloro-4-((4-(2-(4-((2-(2,6-dioxopiperidin-3-yl)-1,3-dioxoisoindolin-5-yl)glycyl)piperazin-1-yl)acetyl)piperazin-1-yl)methyl)-4-methyl-3,4,5,6-tetrahydro-[1,1′-biphenyl]-2-yl)methyl)piperazin-1-yl)-N-((4-(((R)-4-morpholino-1-(phenylthio)butan-2-yl)amino)-3-((trifluoromethyl)sulfonyl)phenyl)sulfonyl)benzamide] showed an EC50 [1] of under 1 nM, an EC50 (WI-38 NC) of over 10000 nM and an EC50 [2] of under 1 nM.

C[C@@]1(CN2CC(CN3CCN(c4ccc5c(c4)CN(C4CCC(=O)NC4=O)C5=O)CC3)C2)CCC(c2ccc(Cl)cc2)=C(CN2CCN(c3ccc(C(=O)NS(=O)(=O)c4ccc(N[C@H](CCN5CCCOCC5)CSc5ccccc5)c(S(=O)(=O)C(F)(F)F)c4)cc3)CC2)C1 (stereo partly drawn) [Compound 24, N-((4-(((R)-4-(1,4-oxazepan-4-yl)-1-(phenylthio)butan-2-yl)amino)-3-((trifluoromethyl)sulfonyl)phenyl)sulfonyl)-4-(4-(((4R)-4′-chloro-4-((3-((4-(2-(2,6-dioxopiperidin-3-yl)-1-oxoisoindolin-5-yl)piperazin-1-yl)methyl)azetidin-1-yl)methyl)-4-methyl-3,4,5,6-tetrahydro-[1,1′-biphenyl]-2-yl)methyl)piperazin-1-yl)benzamide] showed an EC50 [1] of under 1 nM, an EC50 (WI-38 NC) of over 10000 nM and an EC50 [2] of 1 to 10 nM.

In the case of C[C@@]1(CN2CCN(CC#Cc3ccc4c(c3)CN(C3CCC(=O)NC3=O)C4=O)CC2)CCC(c2ccc(Cl)cc2)=C(CN2CCN(c3ccc(C(=O)NS(=O)(=O)c4ccc(N[C@H](CCN5CCCOCC5)CSc5ccccc5)c(S(=O)(=O)C(F)(F)F)c4)cc3)CC2)C1 (stereo partly drawn) [Compound 26, N-((4-(((R)-4-(1,4-oxazepan-4-yl)-1-(phenylthio)butan-2-yl)amino)-3-((trifluoromethyl)sulfonyl)phenyl)sulfonyl)-4-(4-(((4R)-4′-chloro-4-((4-(3-(2-(2,6-dioxopiperidin-3-yl)-1-oxoisoindolin-5-yl)prop-2-yn-1-yl)piperazin-1-yl)methyl)-4-methyl-3,4,5,6-tetrahydro-[1,1′-biphenyl]-2-yl)methyl)piperazin-1-yl)benzamide], the EC50 [1] is reported as 1 to 10 nM, the EC50 (WI-38 NC) is reported as over 10000 nM and the EC50 [2] is reported as under 1 nM.

C[C@@]1(CN2CCC(CC#Cc3ccc4c(c3)CN(C3CCC(=O)NC3=O)C4=O)CC2)CCC(c2ccc(Cl)cc2)=C(CN2CCN(c3ccc(C(=O)NS(=O)(=O)c4ccc(N[C@H](CCN5CCCOCC5)CSc5ccccc5)c(S(=O)(=O)C(F)(F)F)c4)cc3)CC2)C1 (stereo partly drawn) [Compound 29, N-((4-(((R)-4-(1,4-oxazepan-4-yl)-1-(phenylthio)butan-2-yl)amino)-3-((trifluoromethyl)sulfonyl)phenyl)sulfonyl)-4-(4-(((4R)-4′-chloro-4-((4-(3-(2-(2,6-dioxopiperidin-3-yl)-1-oxoisoindolin-5-yl)prop-2-yn-1-yl)piperidin-1-yl)methyl)-4-methyl-3,4,5,6-tetrahydro-[1,1′-biphenyl]-2-yl)methyl)piperazin-1-yl)benzamide] showed an EC50 [1] of under 1 nM, an EC50 (WI-38 NC) of over 10000 nM and an EC50 [2] of 1 to 10 nM.

Compound CN(CC#Cc1ccc2c(c1)CN(C1CCC(=O)NC1=O)C2=O)C[C@]1(C)CCC(c2ccc(Cl)cc2)=C(CN2CCN(c3ccc(C(=O)NS(=O)(=O)c4ccc(N[C@H](CCN5CCCOCC5)CSc5ccccc5)c(S(=O)(=O)C(F)(F)F)c4)cc3)CC2)C1 (stereo partly drawn) [Compound 37, N-((4-(((R)-4-(1,4-oxazepan-4-yl)-1-(phenylthio)butan-2-yl)amino)-3-((trifluoromethyl)sulfonyl)phenyl)sulfonyl)-4-(4-(((4R)-4′-chloro-4-(((3-(2-(2,6-dioxopiperidin-3-yl)-1-oxoisoindolin-5-yl)prop-2-yn-1-yl)(methyl)amino)methyl)-4-methyl-3,4,5,6-tetrahydro-[1,1′-biphenyl]-2-yl)methyl)piperazin-1-yl)benzamide] has an EC50 [1] of 1 to 10 nM, an EC50 (WI-38 NC) of over 10000 nM and an EC50 [2] of under 1 nM.

For CC(C)N(CC#Cc1ccc2c(c1)CN(C1CCC(=O)NC1=O)C2=O)C[C@]1(C)CCC(c2ccc(Cl)cc2)=C(CN2CCN(c3ccc(C(=O)NS(=O)(=O)c4ccc(N[C@H](CCN5CCCOCC5)CSc5ccccc5)c(S(=O)(=O)C(F)(F)F)c4)cc3)CC2)C1 (stereo partly drawn) [Compound 38, N-((4-(((R)-4-(1,4-oxazepan-4-yl)-1-(phenylthio)butan-2-yl)amino)-3-((trifluoromethyl)sulfonyl)phenyl)sulfonyl)-4-(4-(((4R)-4′-chloro-4-(((3-(2-(2,6-dioxopiperidin-3-yl)-1-oxoisoindolin-5-yl)prop-2-yn-1-yl) (isopropyl)amino)methyl)-4-methyl-3,4,5,6-tetrahydro-[1,1′-biphenyl]-2-yl)methyl)piperazin-1-yl)benzamide], the EC50 [1] was 1 to 10 nM, the EC50 (WI-38 NC) was over 10000 nM and the EC50 [2] was 1 to 10 nM.

C[C@@]1(CN2CCN(CCC#Cc3ccc4c(c3)CN(C3CCC(=O)NC3=O)C4=O)CC2)CCC(c2ccc(Cl)cc2)=C(CN2CCN(c3ccc(C(=O)NS(=O)(=O)c4ccc(N[C@H](CCN5CCCOCC5)CSc5ccccc5)c(S(=O)(=O)C(F)(F)F)c4)cc3)CC2)C1 (stereo partly drawn) [Compound 40, N-((4-(((R)-4-(1,4-oxazepan-4-yl)-1-(phenylthio)butan-2-yl)amino)-3-((trifluoromethyl)sulfonyl)phenyl)sulfonyl)-4-(4-(((4R)-4′-chloro-4-((4-(4-(2-(2,6-dioxopiperidin-3-yl)-1-oxoisoindolin-5-yl)but-3-yn-1-yl)piperazin-1-yl)methyl)-4-methyl-3,4,5,6-tetrahydro-[1,1′-biphenyl]-2-yl)methyl)piperazin-1-yl)benzamide] gave an EC50 [1] of under 1 nM, an EC50 (WI-38 NC) of over 10000 nM and an EC50 [2] of under 1 nM.

In the case of C[C@@]1(CN2CC(CN3CCCN(c4ccc5c(c4)CN(C4CCC(=O)NC4=O)C5=O)CC3)C2)CCC(c2ccc(Cl)cc2)=C(CN2CCN(c3ccc(C(=O)NS(=O)(=O)c4ccc(N[C@H](CCN5CCCOCC5)CSc5ccccc5)c(S(=O)(=O)C(F)(F)F)c4)cc3)CC2)C1 (stereo partly drawn) [Compound 45, N-((4-(((R)-4-(1,4-oxazepan-4-yl)-1-(phenylthio)butan-2-yl)amino)-3-((trifluoromethyl)sulfonyl)phenyl)sulfonyl)-4-(4-(((4R)-4′-chloro-4-((3-((4-(2-(2,6-dioxopiperidin-3-yl)-1-oxoisoindolin-5-yl)-1,4-diazepan-1-yl)methyl)azetidin-1-yl)methyl)-4-methyl-3,4,5,6-tetrahydro-[1,1′-biphenyl]-2-yl)methyl)piperazin-1-yl)benzamide], the EC50 [1] is reported as 1 to 10 nM, the “Senolytic Activity EC50 (72 hr), WI-38 NC” value (WI-38 NC) is reported as “++ (100-10 μM)” and the EC50 [2] is reported as 1 to 10 nM.

C[C@@]1(CN2CCC(CCc3ccc4c(c3)CN(C3CCC(=O)NC3=O)C4=O)CC2)CCC(c2ccc(Cl)cc2)=C(CN2CCN(c3ccc(C(=O)NS(=O)(=O)c4ccc(N[C@H](CCN5CCCOCC5)CSc5ccccc5)c(S(=O)(=O)C(F)(F)F)c4)cc3)CC2)C1 (stereo partly drawn) [Compound 46, N-((4-(((R)-4-(1,4-oxazepan-4-yl)-1-(phenylthio)butan-2-yl)amino)-3-((trifluoromethyl)sulfonyl)phenyl)sulfonyl)-4-(4-(((4R)-4′-chloro-4-((4-(2-(2-(2,6-dioxopiperidin-3-yl)-1-oxoisoindolin-5-yl)ethyl)piperidin-1-yl)methyl)-4-methyl-3,4,5,6-tetrahydro-[1,1′-biphenyl]-2-yl)methyl)piperazin-1-yl)benzamide] was tested, and the EC50 [1] was under 1 nM, the EC50 (WI-38 NC) was over 10000 nM and the EC50 [2] was under 1 nM.

In the case of CC1CN(c2ccc3c(c2)CN(C2CCC(=O)NC2=O)C3=O)CC(C)N1CC1CCN(C[C@]2(C)CCC(c3ccc(Cl)cc3)=C(CN3CCN(c4ccc(C(=O)NS(=O)(=O)c5ccc(N[C@H](CCN6CCCOCC6)CSc6ccccc6)c(S(=O)(=O)C(F)(F)F)c5)cc4)CC3)C2)CC1 (stereo partly drawn) [Compound 50, N-((4-(((R)-4-(1,4-oxazepan-4-yl)-1-(phenylthio)butan-2-yl)amino)-3-((trifluoromethyl)sulfonyl)phenyl)sulfonyl)-4-(4-(((4R)-4′-chloro-4-((4-((4-(2-(2,6-dioxopiperidin-3-yl)-1-oxoisoindolin-5-yl)-2,6-dimethylpiperazin-1-yl)methyl)piperidin-1-yl)methyl)-4-methyl-3,4,5,6-tetrahydro-[1,1′-biphenyl]-2-yl)methyl)piperazin-1-8 yl)benzamide], the EC50 [1] is reported as under 1 nM, the “Senolytic Activity EC50 (72 hr), WI-38 NC” value (WI-38 NC) is reported as “++ (100-10 μM)” and the EC50 [2] is reported as under 1 nM.

Compound C[C@@]1(CN2CCC(CCN3CCN(c4ccc5c(c4)CN(C4CCC(=O)NC4=O)C5=O)CC3)CC2)CCC(c2ccc(Cl)cc2)=C(CN2CCN(c3ccc(C(=O)NS(=O)(=O)c4ccc(N[C@H](CCN5CCCOCC5)CSc5ccccc5)c(S(=O)(=O)C(F)(F)F)c4)cc3)CC2)C1 (stereo partly drawn) [Compound 65, N-((4-(((R)-4-(1,4-oxazepan-4-yl)-1-(phenylthio)butan-2-yl)amino)-3-((trifluoromethyl)sulfonyl)phenyl)sulfonyl)-4-(4-(((4R)-4′-chloro-4-((4-(2-(4-(2-(2,6-dioxopiperidin-3-yl)-1-oxoisoindolin-5-yl)piperazin-1-yl)ethyl)piperidin-1-yl)methyl)-4-methyl-3,4,5,6-tetrahydro-[1,1′-biphenyl]-2-yl)methyl)piperazin-1-yl)benzamide] has an EC50 [1] of under 1 nM, an EC50 (WI-38 NC) of over 10000 nM and an EC50 [2] of under 1 nM.
